Test results from paper PMC7477548, “Prediction of an MMP-1 inhibitor activity cliff using the SAR matrix approach and its experimental validation” (Scientific Reports, 2020).

Tests used:
MMP-1 = biological target: T1, MMP-1 (Homo sapiens, UniProt P03956); assay: MMP-1 inhibitory colorimetric assay (MMP1 Inhibitor Screening Assay Kit ab139443); format: biochemical; details: for inhibitory activity against MMP-1 in words: at a 100 µM concentration; for IC50: colorimetric assay, A412nm, mean ± standard deviation of triplicated samples
T1 construct: purchased abcam ab139443
T1 sequence (P03956 100-269 limits assumed): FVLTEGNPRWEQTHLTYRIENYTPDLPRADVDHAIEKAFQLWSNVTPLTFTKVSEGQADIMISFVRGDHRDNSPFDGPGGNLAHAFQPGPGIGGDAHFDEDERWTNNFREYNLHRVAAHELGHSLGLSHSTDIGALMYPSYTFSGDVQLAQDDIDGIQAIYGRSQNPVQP
Method: We next examined the inhibitory activity of the synthesized compounds 3–6 against MMP-1 using a colorimetric assay. This assay was performed using the MMP-1 Inhibitor Screening Assay Kit (ab139443) according to the manufacturer’s protocols. The reaction was started by the addition of the diluted MMP-1 substrate. The continuous absorbance of the wells was measured at A412nm using a microplate reader.
MMP-1 inhibitory assay was performed using the assay kit according to the manufacturer’s protocol. A 96-well clear microplate (1/2 volume), 30.6 U/µL of MMP-1 enzyme, MMP-1 substrate (25 mM in DMSO), and colorimetric assay buffer were contained in MMP1 Inhibitor Screening Assay Kit (ab139443, abcam). 2-[(2-Methylpropyl)[(4-methoxyphenyl)sulfonyl]amino]acetohydroximic acid (NNGH) was used as a positive control of an MMP-1 inhibitor. The MMP-1 substrate and DMSO solution of compound were thawed at room temperature. A compound (10 mM in DMSO) was diluted at 1/200 in assay buffer and brought to 37 °C. Also, the MMP-1 substrate was diluted at 1/200 in assay buffer and brought to 37 °C. The MMP-1 enzyme was diluted at 1/25 in assay buffer and warmed up to 37 °C as soon as the assay was started. After the assay buffer was pipetted appropriately into each well, 20 µL of the prepared MMP-1 enzyme solution and the desired concentration of test inhibitor solutions (20 µL; final concentrations: 0.1–100 µM) were added to the wells. The microplate was incubated for 30 min at 37 °C. The 10 µL of the prepared MMP-1 substrate solution was added into each well to allow the reaction start. The absorbance of the wells was measured at A412nm using a microplate reader every 1 min, and data analysis was performed.

| IC50 (MMP-1) [µM] | melting point [°C] | fold higher MMP-1 inhibitory activity (fold lower IC50) of compound 4 relative to compound 3 (MMP-1; ratio of IC50 values, compound 3 vs compound 4) [fold] | Structure (SMILES) | inhibitory activity against MMP-1 in words (MMP-1) |
| --- | --- | --- | --- | --- |
| > 100 | 137 to 138 |  | C[C@H](C(=O)NO)N1CC[C@](C)(c2ccc(-c3ccccc3)cc2)C1=O [3′, (R)-2-((R)-3-([1,1′-biphenyl]-4-yl)-3-methyl-2-oxopyrrolidin-1-yl)-N-hydroxypropanamide] | did not display significant inhibitory activity |
| > 100 | 105 to 107 |  | C[C@H](C(=O)NO)N1CC[C@](C)(c2ccc(C(F)(F)F)cc2)C1=O [4′, (R)-N-hydroxy-2-((R)-3-methyl-2-oxo-3-(4-(trifluoromethyl)phenyl)pyrrolidin-1-yl)propanamide] | did not display significant inhibitory activity |
| 11.5 ± 1.3 | 160 to 162 |  | C[C@H](C(=O)NO)N1CC[C@@](C)(c2ccc(-c3ccccc3)cc2)C1=O [Compound 3, (R)-2-((S)-3-([1,1′-biphenyl]-4-yl)-3-methyl-2-oxopyrrolidin-1-yl)-N-hydroxypropanamide] |  |
| 0.18 ± 0.03 |  | 60 | C[C@H](C(=O)NO)N1CC[C@@](C)(c2ccc(C(F)(F)F)cc2)C1=O [Compound 4, (R)-N-hydroxy-2-((S)-3-methyl-2-oxo-3-(4-(trifluoromethyl)phenyl)pyrrolidin-1-yl)propanamide] |  |
| 1.54 ± 0.08 |  |  | C[C@H](C(=O)NO)N1CC[C@@](C)(c2ccccc2)C1=O [Compound 5, (R)-N-hydroxy-2-((S)-3-methyl-2-oxo-3-phenylpyrrolidin-1-yl)propanamide] |  |
| 11.1 ± 0.5 |  |  | C[C@H](C(=O)NO)N1CC[C@@](C)(c2cccc(C(F)(F)F)c2)C1=O [Compound 6, (R)-N-hydroxy-2-((S)-3-methyl-2-oxo-3-(3-(trifluoromethyl)phenyl)pyrrolidin-1-yl)propanamide] |  |
